According to ChEMBL document CHEMBL1151757, “Synthesis, radiosynthesis, and biological evaluation of fluorine-18-labeled 2beta-carbo(fluoroalkoxy)-3beta-(3'-((Z)-2-haloethenyl)phenyl)nortropanes: candidate radioligands for in vivo imaging of the serotonin transporter with positron emission tomography” (J Med Chem, 2008):

Assays:
[1] = system: Putamen; test: Drug uptake in anesthetized cynomolgus monkey brain putamen after 225 mins postinjection; assay type: ADME, organism-based, Macaca fascicularis; conditions: in vivo, 3.75 h
[2] = system: Medulla; test: Drug uptake in anesthetized cynomolgus monkey brain medulla after 27.5 mins postinjection; assay type: ADME, organism-based, Macaca fascicularis; conditions: in vivo
[3] = Ratio of drug uptake in medulla to cerebellum in anesthetized cynomolgus monkey after 165 mins postinjection; assay type: ADME, organism-based, Macaca fascicularis; conditions: in vivo, 2.75 h
[4] = system: Thalamus; test: Drug uptake in anesthetized cynomolgus monkey brain thalamus after 115 mins postinjection; assay type: ADME, organism-based, Macaca fascicularis; set-up: unit not given here; conditions: in vivo
[5] = system: Caudate; test: Drug uptake in anesthetized cynomolgus monkey brain caudate after 65 mins postinjection; assay type: ADME, organism-based, Macaca fascicularis, Caudate nucleus; conditions: in vivo
[6] = system: Putamen; test: Drug uptake in anesthetized cynomolgus monkey brain putamen after 95 mins postinjection; assay type: ADME, organism-based, Macaca fascicularis; set-up: unit not given here; conditions: in vivo
[7] = system: Putamen; test: Drug uptake in anesthetized cynomolgus monkey brain putamen after 6.5 mins postinjection; assay type: ADME, organism-based, Macaca fascicularis; set-up: unit not given here; conditions: in vivo
[8] = system: Medulla; test: Drug uptake in anesthetized cynomolgus monkey brain medulla after 4.5 mins postinjection; assay type: ADME, organism-based, Macaca fascicularis; conditions: in vivo, 0.075 h
[9] = system: Pons; test: Drug uptake in anesthetized cynomolgus monkey brain pons after 225 mins postinjection; assay type: ADME, organism-based, Macaca fascicularis; conditions: in vivo, 3.75 h
[10] = system: Medulla; test: Drug uptake in anesthetized cynomolgus monkey brain medulla after 2.5 mins postinjection; assay type: ADME, organism-based, Macaca fascicularis; conditions: in vivo
[11] = system: Caudate; test: Drug uptake in anesthetized cynomolgus monkey brain caudate after 145 mins postinjection; assay type: ADME, organism-based, Macaca fascicularis, Caudate nucleus; conditions: in vivo
[12] = system: Thalamus; test: Drug uptake in anesthetized cynomolgus monkey brain thalamus after 12.5 mins postinjection; assay type: ADME, organism-based, Macaca fascicularis; set-up: unit not given here; conditions: in vivo
[13] = system: Caudate; test: Drug uptake in anesthetized cynomolgus monkey brain caudate after 215 mins postinjection; assay type: ADME, organism-based, Macaca fascicularis, Caudate nucleus; conditions: in vivo
[14] = system: Medulla; test: Drug uptake in anesthetized cynomolgus monkey brain medulla after 1.5 mins postinjection; assay type: ADME, organism-based, Macaca fascicularis; conditions: in vivo, 0.025 h
[15] = system: Caudate; test: Drug uptake in anesthetized cynomolgus monkey brain caudate after 85 mins postinjection; assay type: ADME, organism-based, Macaca fascicularis, Caudate nucleus; conditions: in vivo
[16] = Ratio of drug uptake in caudate to cerebellum in anesthetized cynomolgus monkey after 9.5 mins postinjection; assay type: ADME, organism-based, Macaca fascicularis; conditions: in vivo
[17] = system: Caudate; test: Drug uptake in anesthetized cynomolgus monkey brain caudate after 22.5 mins postinjection; assay type: ADME, organism-based, Macaca fascicularis, Caudate nucleus; conditions: in vivo, 0.375 h
[18] = system: Midbrain; test: Drug uptake in anesthetized cynomolgus monkey brain midbrain after 27.5 mins postinjection; assay type: ADME, organism-based, Macaca fascicularis; set-up: unit not given here; conditions: in vivo
[19] = system: Thalamus; test: Drug uptake in anesthetized cynomolgus monkey brain thalamus after 105 mins postinjection; assay type: ADME, organism-based, Macaca fascicularis; set-up: unit not given here; conditions: in vivo, 1.75 h
[20] = system: Pons; test: Drug uptake in anesthetized cynomolgus monkey brain pons after 105 mins postinjection; assay type: ADME, organism-based, Macaca fascicularis; conditions: in vivo, 1.75 h
[21] = system: Medulla; test: Drug uptake in anesthetized cynomolgus monkey brain medulla after 0.5 mins postinjection; assay type: ADME, organism-based, Macaca fascicularis; conditions: in vivo
[22] = Ratio of drug uptake in thalamus to cerebellum in anesthetized cynomolgus monkey after 9.5 mins postinjection; assay type: ADME, organism-based, Macaca fascicularis; conditions: in vivo
[23] = Drug uptake in anesthetized cynomolgus monkey brain occipital lobe after 155 mins postinjection; assay type: ADME, organism-based, Macaca fascicularis; conditions: in vivo
[24] = system: Midbrain; test: Drug uptake in anesthetized cynomolgus monkey brain midbrain after 225 mins postinjection; assay type: ADME, organism-based, Macaca fascicularis; conditions: in vivo, 3.75 h
[25] = system: Midbrain; test: Drug uptake in anesthetized cynomolgus monkey brain midbrain after 1.5 mins postinjection; assay type: ADME, organism-based, Macaca fascicularis; set-up: unit not given here; conditions: in vivo, 0.025 h
[26] = Drug uptake in anesthetized cynomolgus monkey brain frontal lobe after 65 mins postinjection; assay type: ADME, organism-based, Macaca fascicularis; conditions: in vivo
[27] = system: Medulla; test: Drug uptake in anesthetized cynomolgus monkey brain medulla after 3.5 mins postinjection; assay type: ADME, organism-based, Macaca fascicularis; conditions: in vivo
[28] = Ratio of drug uptake in pons to cerebellum in anesthetized cynomolgus monkey after 18.5 mins postinjection; assay type: ADME, organism-based, Macaca fascicularis; conditions: in vivo
[29] = system: Medulla; test: Drug uptake in anesthetized cynomolgus monkey brain medulla after 165 mins postinjection; assay type: ADME, organism-based, Macaca fascicularis; conditions: in vivo, 2.75 h
[30] = system: Putamen; test: Drug uptake in anesthetized cynomolgus monkey brain putamen after 27.5 mins postinjection; assay type: ADME, organism-based, Macaca fascicularis; set-up: unit not given here; conditions: in vivo
[31] = system: Midbrain; test: Drug uptake in anesthetized cynomolgus monkey brain midbrain after 155 mins postinjection; assay type: ADME, organism-based, Macaca fascicularis; conditions: in vivo
[32] = Ratio of drug uptake in midbrain to cerebellum in anesthetized cynomolgus monkey after 18.5 mins postinjection; assay type: ADME, organism-based, Macaca fascicularis; conditions: in vivo
[33] = system: Caudate; test: Drug uptake in anesthetized cynomolgus monkey brain caudate after 135 mins postinjection; assay type: ADME, organism-based, Macaca fascicularis, Caudate nucleus; conditions: in vivo, 2.25 h
[34] = system: Medulla; test: Drug uptake in anesthetized cynomolgus monkey brain medulla after 175 mins postinjection; assay type: ADME, organism-based, Macaca fascicularis; conditions: in vivo
[35] = system: Pons; test: Drug uptake in anesthetized cynomolgus monkey brain pons after 235 mins postinjection; assay type: ADME, organism-based, Macaca fascicularis; conditions: in vivo
[36] = Drug uptake in anesthetized cynomolgus monkey brain frontal lobe after 2.5 mins postinjection; assay type: ADME, organism-based, Macaca fascicularis; conditions: in vivo
[37] = Drug uptake in anesthetized cynomolgus monkey brain frontal lobe after 95 mins postinjection; assay type: ADME, organism-based, Macaca fascicularis; conditions: in vivo
[38] = system: Caudate; test: Drug uptake in anesthetized cynomolgus monkey brain caudate after 115 mins postinjection; assay type: ADME, organism-based, Macaca fascicularis, Caudate nucleus; conditions: in vivo
[39] = system: Caudate; test: Drug uptake in anesthetized cynomolgus monkey brain caudate after 105 mins postinjection; assay type: ADME, organism-based, Macaca fascicularis, Caudate nucleus; conditions: in vivo, 1.75 h
[40] = Ratio of drug uptake in midbrain to cerebellum in anesthetized cynomolgus monkey after 2.5 mins postinjection; assay type: ADME, organism-based, Macaca fascicularis; conditions: in vivo
[41] = system: Midbrain; test: Drug uptake in anesthetized cynomolgus monkey brain midbrain after 12.5 mins postinjection; assay type: ADME, organism-based, Macaca fascicularis; set-up: unit not given here; conditions: in vivo
[42] = system: Midbrain; test: Drug uptake in anesthetized cynomolgus monkey brain midbrain after 9.5 mins postinjection; assay type: ADME, organism-based, Macaca fascicularis; set-up: unit not given here; conditions: in vivo
[43] = Ratio of drug uptake in thalamus to cerebellum in anesthetized cynomolgus monkey after 135 mins postinjection; assay type: ADME, organism-based, Macaca fascicularis; conditions: in vivo, 2.25 h
[44] = system: Pons; test: Drug uptake in anesthetized cynomolgus monkey brain pons after 6.5 mins postinjection; assay type: ADME, organism-based, Macaca fascicularis; conditions: in vivo
[45] = Ratio of drug uptake in putamen to cerebellum in anesthetized cynomolgus monkey after 235 mins postinjection; assay type: ADME, organism-based, Macaca fascicularis; conditions: in vivo

SMILES: O=C(OCC[18F])C1C2CCC(CC1c1cccc(/C=C\I)c1)N2 (stereo not given)
- Drug uptake [1]: 2.44
- Drug uptake [2]: 3.97
- Ratio [3]: 1.7
- Drug uptake [4]: 3.58
- Drug uptake [5]: 3.67
- Drug uptake [6]: 4.02
- Drug uptake [7]: 2.54
- Drug uptake [8]: 1.8
- Drug uptake [9]: 2.03
- Drug uptake [10]: 0.52
- Drug uptake [11]: 2.75
- Drug uptake [12]: 3.32
- Drug uptake [13]: 2.09
- Drug uptake [14]: 0.13
- Drug uptake [15]: 3.53
- Ratio [16]: 0.7
- Drug uptake [17]: 3.32
- Drug uptake [18]: 4.71
- Drug uptake [19]: 3.74
- Drug uptake [20]: 3.01
- Drug uptake [21]: 0
- Ratio [22]: 0.9
- Drug uptake [23]: 1.63
- Drug uptake [24]: 2.99
- Drug uptake [25]: 0.11
- Drug uptake [26]: 2.78
- Drug uptake [27]: 1.08
- Ratio [28]: 0.7
- Drug uptake [29]: 2.88
- Drug uptake [30]: 4.16
- Drug uptake [31]: 3.66
- Ratio [32]: 1.1
- Drug uptake [33]: 2.87
- Drug uptake [34]: 2.78
- Drug uptake [35]: 1.97
- Drug uptake [36]: 0.28
- Drug uptake [37]: 2.53
- Drug uptake [38]: 3.17
- Drug uptake [39]: 3.33
- Ratio [40]: 1.2
- Drug uptake [41]: 3.95
- Drug uptake [42]: 3.52
- Ratio [43]: 1.8
- Drug uptake [44]: 2.02
- Ratio [45]: 1.8
